Measurements taken from US20250296953A1, “3,4-THIAZOLO-STEROIDS AND METHODS OF MAKING AND USING THE SAME” (Arkansas State University - Jonesboro, priority 2018, published 2025).
Read-outs that look alike come from different tables or passages of the source.

How the values were obtained:
glioblastoma (SF-295) = test: NCI 60 five dose screen
[1] = tested on: 60 different human tumor cell lines; conditions: five dose

SMILES: C[C@]12CC[C@H]3[C@@H](CC=C4c5sc(-c6ccc(O)cc6)nc5CC[C@@]43C)[C@@H]1CC[C@@H]2O [III.5, (1S,2R,13R,14S,17S,18S)-7-(4-hydroxyphenyl)-2,18-dimethyl-8-thia-6-azapentacyclo[11.7.0.02,10.05,9.014,18]icosa-5(9),6,10-trien-17-ol]
- GI50 (glioblastoma (SF-295); Homo sapiens, SF-295): 0.413 µM
- CC50 (glioblastoma (SF-295); Homo sapiens, SF-295, read-out: LC50): 8.2 µM
- TGI (glioblastoma (SF-295); SF-295 (CNS Cancer), five dose): 2.03E−6
- TGI ([1]; 786-0 (Renal Cancer)): 2.39E−6
- TGI ([1]; A498 (Renal Cancer)): 2.13E−5
- TGI ([1]; A549/ATCC (Non-small Cell Lung Cancer)): >1.00E−4
- TGI ([1]; ACHN (Renal Cancer)): >1.00E−4
- TGI ([1]; BT-549 (Breast Cancer)): 1.94E−5
- TGI ([1]; CAKI-1 (Renal Cancer)): >1.00E−4
- TGI ([1]; CCRF-CEM (Leukemia)): 4.72E−5
- TGI ([1]; COLO 205 (Colon Cancer)): >1.00E−4
- TGI ([1]; DU-145 (Prostate Cancer)): >1.00E−4
- TGI ([1]; EKVX (Non-small Cell Lung Cancer)): >1.00E−4
- TGI ([1]; HCC-2998 (Colon Cancer)): >1.00E−4
- TGI ([1]; HCT-15 (Colon Cancer)): 2.07E−5
- TGI ([1]; HCT-116 (Colon Cancer)): 2.74E−5
- TGI ([1]; HL-60(TB) (Leukemia)): >1.00E−4
- TGI ([1]; HOP-62 (Non-small Cell Lung Cancer)): 5.05E−5
- TGI ([1]; HS 578T (Breast Cancer)): 6.01E−5
- TGI ([1]; HT29 (Colon Cancer)): 2.04E−5
- TGI ([1]; IGROV1 (Ovarian Cancer)): >1.00E−4
- TGI ([1]; K-562 (Leukemia)): >1.00E−4
- TGI ([1]; KM12 (Colon Cancer)): >1.00E−4
- TGI ([1]; LOX IMVI (Melanoma)): 1.46E−5
- TGI ([1]; M14 (Melanoma)): 2.93E−5
- TGI ([1]; MALME-3M (Melanoma)): >1.00E−4
- TGI ([1]; MCF7 (Breast Cancer)): 2.15E−5
- TGI ([1]; MDA-MB-231/ATCC (Breast Cancer)): 3.29E−5
- TGI ([1]; MDA-MB-435 (Melanoma)): >1.00E−4
- TGI ([1]; MDA-MB-468 (Breast Cancer)): 4.16E−5
- TGI ([1]; MOLT-4 (Leukemia)): >1.00E−4
- TGI ([1]; NCI-H23 (Non-small Cell Lung Cancer)): >1.00E−4
- TGI ([1]; NCI-H226 (Non-small Cell Lung Cancer)): >1.00E−4
- TGI ([1]; NCI-H322M (Non-small Cell Lung Cancer)): >1.00E−4
- TGI ([1]; NCI-H460 (Non-small Cell Lung Cancer)): >1.00E−4
- TGI ([1]; NCI-H522 (Non-small Cell Lung Cancer)): >1.00E−4
- TGI ([1]; NCI/ADR-RES (Ovarian Cancer)): >1.00E−4
- TGI ([1]; OVCAR-3 (Ovarian Cancer)): 8.37E−5
- TGI ([1]; OVCAR-4 (Ovarian Cancer)): >1.00E−4
- TGI ([1]; OVCAR-5 (Ovarian Cancer)): >1.00E−4
- TGI ([1]; OVCAR-8 (Ovarian Cancer)): >1.00E−4
- TGI ([1]; RXF 393 (Renal Cancer)): 1.31E−6
- TGI ([1]; SF-268 (CNS Cancer)): >1.00E−4
- TGI ([1]; SK-MEL-2 (Melanoma)): 6.94E−5
- TGI ([1]; SK-MEL-5 (Melanoma)): 1.31E−5
- TGI ([1]; SK-MEL-28 (Melanoma)): 6.60E−5
- TGI ([1]; SK-OV-3 (Ovarian Cancer)): >1.00E−4
- TGI ([1]; SN12C (Renal Cancer)): >1.00E−4
- TGI ([1]; SNB-19 (CNS Cancer)): >1.00E−4
- TGI ([1]; SNB-75 (CNS Cancer)): 2.57E−5
- TGI ([1]; SW-620 (Colon Cancer)): >1.00E−4
- TGI ([1]; T-47D (Breast Cancer)): >1.00E−4
- TGI ([1]; TK-10 (Renal Cancer)): >1.00E−4
- TGI ([1]; U251 (CNS Cancer)): 6.73E−5
- TGI ([1]; UACC-62 (Melanoma)): 7.64E−6
- TGI ([1]; UACC-257 (Melanoma)): >1.00E−4
- TGI ([1]; UO-31 (Renal Cancer)): 2.04E−5
